Among the data in the NIST ThermoML archive (doi:10.1016/j.jct.2006.05.005) are mass density, Normal boiling temperature and refractive index values, retold here.

The conditions of series [1]: Liquid; for mass density: 293.15 K, 101.33 kPa.
The nature of series [2]: refractive index (Na D-line) (dimensionless). The settings on record: 293.15 K; 101.33 kPa; Liquid.

± gives the expanded uncertainty stated by the source.

As for `CCCOCCC` [dipropyl ether], in series [1], the mass density is listed as 736.1 ± 8.8 kg/m3 and the Normal boiling temperature is 90.08 ± 0.4 °C. Further, in series [2], the refractive index was 1.3813 ± 0.0064.
Take `CC(C)OC(C)C` [diisopropyl ether]: in series [1], the mass density was determined as 723.9 ± 2.4 kg/m3 and the Normal boiling temperature worked out at 68.40 ± 0.4 °C.
As for `CCC(=O)O` [propanoic acid], in series [1], the mass density is on record as 993 ± 0.74 kg/m3 and the Normal boiling temperature is 141.2 ± 0.4 °C. In addition, the refractive index in series [2] stood at 1.3811 ± 0.0017.
